Laboratory results published in patent US20220339135A1, “COMPOSITIONS AND METHODS FOR MODULATING AN INFLAMMATORY RESPONSE” (Enzychem Lifesciences Corporation, priority 2019, published 2022).
Entries after “also recorded” stand apart in the source; their conditions may differ.

Tested on: Pseudomonas aeruginosa strain K (PAK) in bone marrow-derived macrophages (BMDMs)
Assay: In vitro phagocytosis and bacterial killing assay, BMDMs
Format: cell-based
Conditions: for phagocytic activity of BMDMs (intracellular PAK CFU, confocal): 100 μg/ml pretreated 1 h, PAK MOI 50 for 1 h
Method: For immunofluorescence-based measurement of phagocytosis and clearance, BMDMs were grown on glass coverslips in 24-well plates. The cells were infected with PAK (MOI, 50) for different time intervals and then were treated with 10 μg/ml gentamycin for 30 minutes to remove extracellular PAK attached to the cell surface. The infected cells were washed with ice-cold PBS several times, followed by fixing for 10 minutes at room temperature in methanol or 10% paraformaldehyde. The cells were stained with anti-Pseudomonas antibody (Abcam) and then were incubated with goat anti-rabbit IgG secondary antibody conjugated with Alexa Fluor 488. Slides were mounted using the mounting medium ProLong™ Gold antifade reagent with the DNA-binding blue dye DAPI (Thermo Scientific™) and were imaged with a confocal microscope (Zeiss LSM 800, Germany).
For CFU counting-based phagocytosis and bacterial killing assay, PAK was cultured at 37° C. overnight with continuous shaking and was resuspended in PBS. The BMDMs or THP-1 cells were incubated with PAK (MOI, 50) for different time intervals at 37° C. The cells were further cultured in the medium containing 10 μg/ml gentamycin for 30 minutes and then were lysed by 0.5% SDS. The diluted aliquots were spread on LB agar plates, and CFU was counted after incubation of the plates overnight at 37° C.
To evaluate whether PLAG accelerates phagocytosis of PAK by macrophages in vitro systems, bone marrow-derived macrophages (BMDMs) were pretreated with PLAG, and then infected with PAK (MOI, 50) for different lengths of time. Gentamycin ([…]) was treated to the cells for 30 minutes to remove extracellular bacteria. Immunofluorescence micrographs of BMDMs incubated with PAK confirmed that PLAG accelerated not only engulfment of bacteria, but also clearance of bacteria (FIG. 5A). […] PAK is recognized by toll-like receptors 4 and 5 and PAK is phagocytosed by co-cultured macrophage at 2 hrs and sustained for 4 hrs. In the PLAG treated cells, phagocytosis of PAK starts at 30 min and maximized at 1 hr and the invading PAK is cleared at 2 hrs.
For the CFU counting-based phagocytosis assay, PAK was cultured at 37° C. overnight with continuous shaking and then resuspended in PBS. BMDMs were pretreated with 100 μg/ml of PLAG or PLH for 1 hour. The cells were infected with PAK (multiplicity of infection [MOI], 50) for 1 h, and then treated with 10 μg/ml gentamycin for 30 minutes to remove extracellular PAK attached to the cell surface. Then, the cells were lysed with 0.5% SDS and serially diluted in PBS to spread on LB agar plates. CFU counts were performed after overnight incubation at 37° C.
For the immunofluorescence-based measurement of phagocytosis and clearance, BMDMs were grown on glass coverslips in 24-well plates. The cells were infected with PAK (MOI, 50) for 1 hour and then treated with 10 μg/ml gentamycin for 30 minutes to remove extracellular PAK attached to the cell surface. The infected cells were washed several times with ice-cold PBS and then fixed for 10 minutes at room temperature in methanol or 10% paraformaldehyde. The cells were then incubated with anti-Pseudomonas primary and Alexa Fluor 488-conjugated goat anti-rabbit IgG secondary antibodies. The coverslips were mounted on slides with ProLong Gold antifade reagent with DAPI (Thermo Fisher Scientific) and imaged with a confocal microscope (LSM 800; Zeiss, Germany). […]

[1] = PAK MOI 50, PLAG pretreated BMDMs

Compound	phagocytic activity of BMDMs (intracellular PAK CFU, confocal)	invading PAK is cleared [1] [h]	phagocytosis of PAK maximized [1] [h]	phagocytosis of PAK starts [1] [min]
CCCCC/C=C\C/C=C\CCCCCCCC(=O)OC(CO)COC(=O)CCCCCCCCCCCCCCC (centres unmarked) [PLH, palmitic linoleic hydroxyl glycerol, reference compound]	little effect	–	–	–
CCCCC/C=C\C/C=C\CCCCCCCC(=O)OC(COC(C)=O)COC(=O)CCCCCCCCCCCCCCC (racemic) [PLAG, 1-palmitoyl-2-linoleoyl-3-acetylglycerol]	most advanced phagocytosis; also recorded: most effectively enhanced	2	1	30
